Data set [1] relates to E. faecium VRE (ATCC 51559). The experiment in a line: MIC susceptibility testing. The format is cell-based, Enterococcus faecium. Conditions: Enterococcus faecium. A digest of the protocol: (§1)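 CLSI broth microdilution in triplicate, 5×10^5 CFU/mL final, ≤0.5% DMSO; MHB for S. aureus, CA-MHB for E. coli and E. faecium, CA-MHB plus 3% laked horse blood for S. pyogenes (5% CO2).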

The next data set concerns T. cruzi. The experiment in a line: T. cruzi growth inhibition. The format is cell-based, Trypanosoma cruzi. Conditions: read-out: (E) T. cruzi EC50.
The subject of another data set is S. aureus. The data set is described as follows: Serum shift assays (MIC with and without 50% human serum). It counts as cell-based, Staphylococcus aureus. Conditions: Staphylococcus aureus. The protocol: Serum shift assays: To assess the role of protein binding on compound susceptibility, MIC determinations were performed in triplicate in the presence and absence of 50% human serum. Serial threefold dilutions of 2× compound were generated in MHB and aliquoted onto 96 well plates with a DMSO limit of 0.5%. Bacteria were adjusted to 1*10^8 CFUs/mL in MHB, then further diluted 1:100 in MHB and 100% heat deactivated filter sterilized pooled human serum. Fifty microliters were added to each well of the corresponding plates, and the plates were incubated at 37° C. for ˜20 h. The lowest concentration causing ≥90% growth inhibition was recorded as the MIC.

The target of a further data set is T1, MetRS (T. brucei) (Trypanosoma brucei brucei, UniProt Q38C91).
T1 sequence (Q38C91 1-773): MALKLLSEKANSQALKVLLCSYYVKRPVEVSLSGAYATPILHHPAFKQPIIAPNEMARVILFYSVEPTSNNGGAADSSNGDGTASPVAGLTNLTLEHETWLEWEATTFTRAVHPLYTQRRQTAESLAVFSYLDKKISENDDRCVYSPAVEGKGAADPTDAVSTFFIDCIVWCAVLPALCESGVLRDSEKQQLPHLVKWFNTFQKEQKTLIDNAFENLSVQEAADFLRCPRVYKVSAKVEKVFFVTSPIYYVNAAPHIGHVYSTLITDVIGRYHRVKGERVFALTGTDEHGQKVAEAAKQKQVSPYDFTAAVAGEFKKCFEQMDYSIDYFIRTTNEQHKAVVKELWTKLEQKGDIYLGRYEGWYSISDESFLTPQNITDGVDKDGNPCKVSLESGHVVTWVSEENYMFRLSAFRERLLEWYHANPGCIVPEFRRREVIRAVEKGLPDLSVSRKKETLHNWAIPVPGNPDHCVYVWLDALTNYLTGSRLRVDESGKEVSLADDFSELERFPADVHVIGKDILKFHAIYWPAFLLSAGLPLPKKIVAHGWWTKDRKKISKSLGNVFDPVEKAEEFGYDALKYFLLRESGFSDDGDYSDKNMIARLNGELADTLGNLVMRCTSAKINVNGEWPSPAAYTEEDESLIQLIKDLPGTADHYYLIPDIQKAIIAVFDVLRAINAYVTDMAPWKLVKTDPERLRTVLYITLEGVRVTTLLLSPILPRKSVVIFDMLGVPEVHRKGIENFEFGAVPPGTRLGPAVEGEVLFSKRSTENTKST
The experiment in a line: MetRS (T. brucei) enzyme inhibition. The format is biochemical.

A short description of data set [2]: Protein binding assays, equilibrium dialysis. The format is in vitro ADME, mouse. Conditions: 1 μM, equilibrium dialysis 22 hours. The protocol:
Protein binding assays: Compound binding to mouse plasma proteins was determined using 96-well equilibrium dialyzer plates (SDIS 9610EN, Nest Group, Inc.). Mouse plasma ([…]-SW-F, BioreclamationIVT, Westbury, N.Y.) containing compound (final concentration 1 μM) was added to a donor chamber as a 150 μL volume. The buffer solution (0.2 mM phosphate buffer, 150 μL) was added to the reciprocal acceptor chamber. Each compound was tested in triplicate. To prepare calibration solution for compound quantifications, blank wells were prepared containing only mouse plasma in a donor well and buffer solution in its acceptor well. The equilibrium dialysis was carried out by rocking the plate for 22 hours in 37° C. Once equilibrium was reached, the plasma and buffer solution from both wells were carefully removed for further analysis with liquid chromatography-tandem mass spectrometry. Plasma solution and internal standard were mixed in the presence of 80% acetonitrile. After centrifuging the solution, the supernatant was transferred to an insert. Similarly, the buffer solution from the acceptor side was prepared containing 40% acetonitrile. Calibration standards for donor and acceptor sides were prepared with compound concentrations of 50 nM, 100 nM, 250 nM, 500 nM, and 1 μM. The compound concentrations from each well were calculated from the calibration curves using Microsoft Excel. The percentage of the test compound bound was determined as follows: % Free=(Concentration buffer chamber/Concentration plasma chamber)×100% % Bound=100%−% Free
Background: Equilibrium dialysis compares concentrations on both sides of a semipermeable membrane.

Data set [3] has as its target recombinant S. aureus MetRS enzyme (Staphylococcus aureus, UniProt A0A0H2XID2). The experiment in a line: Inhibition of SaMetRS, ATP depletion assay. The format is biochemical. A digest of the protocol: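 N-terminal 6-His S. aureus MetRS (25 nM) was pre-incubated 15 min at room temperature with compound, 400 μg/mL E. coli tRNA and pyrophosphatase in HEPES-KOH pH 7.9, 2% DMSO. Reaction started with 150 nM ATP plus 20 μM L-methionine, ran 120 min; remaining ATP read by Kinase-Glo luminescence, IC50 by sigmoidal nonlinear regression.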

The target in a further data set is MetRS (C. parvum) (Cryptosporidium parvum, UniProt Q5CVN0). The experiment in a line: MetRS (C. parvum) enzyme inhibition. The format is biochemical. The note with it: read-out: (C) MetRS (C. parvum) IC50.
Sequence of MetRS (C. parvum) (Q5CVN0 entry or part of it): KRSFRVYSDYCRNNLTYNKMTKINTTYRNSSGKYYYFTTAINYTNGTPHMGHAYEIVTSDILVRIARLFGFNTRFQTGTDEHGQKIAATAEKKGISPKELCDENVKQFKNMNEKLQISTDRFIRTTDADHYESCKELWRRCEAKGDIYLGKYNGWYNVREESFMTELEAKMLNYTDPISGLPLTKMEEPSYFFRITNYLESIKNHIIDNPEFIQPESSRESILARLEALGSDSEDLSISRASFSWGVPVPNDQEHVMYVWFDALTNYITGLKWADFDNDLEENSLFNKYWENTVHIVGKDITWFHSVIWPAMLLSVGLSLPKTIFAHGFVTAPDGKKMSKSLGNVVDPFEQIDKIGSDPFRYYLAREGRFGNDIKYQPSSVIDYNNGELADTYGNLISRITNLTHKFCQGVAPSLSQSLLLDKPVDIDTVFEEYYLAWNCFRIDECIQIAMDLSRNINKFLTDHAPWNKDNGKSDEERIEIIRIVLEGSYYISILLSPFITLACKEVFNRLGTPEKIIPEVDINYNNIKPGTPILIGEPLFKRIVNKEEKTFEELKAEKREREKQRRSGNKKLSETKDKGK
Data set [4] deals with S. aureus MRSA (ATCC 33591). The data set is described as follows: MIC susceptibility testing. The format is cell-based, Staphylococcus aureus. Conditions: Staphylococcus aureus, MRSA ATCC33591; read-out: (G) MRSA (ATCC33591) MIC. A digest of the protocol:
as §1

A further data set has as its system E. faecium (ATCC 19434). The experiment in a line: MIC susceptibility testing. The format is cell-based. The note with it: Enterococcus faecium, ATCC19434; read-out: E. faecium (ATCC 19434) MIC. From the text:
(§2) Media and culture conditions. Mueller Hinton broth (MHB), cation adjusted Mueller Hinton broth (CA-MHB), and Brain Heart Infusion broth (BHI) were purchased from Becton Dickinson (Franklin Lakes, N.J.). Tryptic soy agar (TSA) plates, TSA with 5% sheep blood plates, and CA-MHB with 3% laked horse blood were purchased from Remel (San Diego, Calif.). MHB was used to assay all Staphylococcus aureus strains. CA-MHB was used for Staphylococcus epidermidis, Enterococcus faecalis, Enterococcus faecium, Escherichia coli, and Pseudomonas aeruginosa. CA-MHB supplemented with 3% laked horse blood was used for Streptococcus pneumoniae and Streptococcus pyogenes. Staphylococcus, Enterococcus, Escherichia, and Pseudomonas strains were cultured at 37° C. with ambient air. Streptococcus strains were cultured in 37° C. with 5% CO2. Separate conditions for radiolabeled precursor uptake assays are described below.
(§3) Susceptibility testing: Minimum inhibitory concentration (MIC) determinations were performed in triplicate in 96-well round bottom microtiter plates (Corning, Corning N.Y.) as described by the Clinical and Laboratory Standards Institute (CLSI). Serial two-fold dilutions of compounds were added to plates in 50 μL volumes. An additional 50 μL of media containing bacterial cells (1×10^6 CFUs/mL) was then added to each well. Maximum DMSO concentrations were 0.5%. Plates were incubated at 37° C. for at least 18 h before reading the susceptibility result by optical absorbance (OD600) using a BioTek ELx800. The lowest concentration causing ≥90% growth inhibition compared to the untreated control was recorded as the MIC (and also corresponded to the visual MIC). MICs were measured at least twice and the higher value (if different) was recorded herein.

Data set [5] concerns S. aureus MRSA (ATCC 43300). The data set is described as follows: MIC susceptibility testing. The note with it: Staphylococcus aureus; read-out: S. aureus MRSA (ATCC 43300) MIC. The format is cell-based.
Text: as §2, §3

The subject of a further data set is E. faecalis (ATCC 29212). The data set is described as follows: MIC susceptibility testing. It counts as cell-based. The note with it: Enterococcus faecalis, ATCC29212; read-out: E. faecalis (ATCC 29212) MIC.
Text: as §2, §3

Data set [6] can be described thus: Cytotoxicity testing on mammalian cells (AlamarBlue, 48 hours). Conditions: human. The format is cell-based. The protocol: Cytotoxicity testing on mammalian cells: Compounds were assayed for cytotoxicity against CRL-8155 (human lymphoblasts) and HepG2 cells (human hepatocellular carcinoma). Cells were exposed to serial dilutions of compounds for 48 hours and toxicity was quantified using AlamarBlue (ThermoFisher Scientific, Waltham, Mass.). Assays were performed in quadruplicate and EC50 values were calculated with non-linear regression methods using software by the Collaborative Drug Database (Burlingame, Calif. www.collaborativedrug.com)

Data set [7] has as its system S. aureus MSSA (ATCC 29213). The data set is described as follows: MIC susceptibility testing. The note with it: Staphylococcus aureus, 18 h; read-out: S. aureus MSSA (ATCC 29213) MIC. It counts as cell-based, Staphylococcus aureus.
The nature of data set [8]: Liver microsome stability. It counts as in vitro ADME. The protocol:
Microsome stability. Liver microsome stability assays were done by contract research laboratory, Wuxi AppTec Co. (Hubei, China). Briefly, compounds at 1 μM concentration were incubated in singlet with human or CD-1 mouse liver microsomes for 6 time points (0, 5, 10, 20, 30, and 60 min). Loss of parent compound was quantified by liquid chromatography/tandem mass spectrometry.
Background: Liver microsomes are vesicles of endoplasmic reticulum, rich in cytochrome P450 enzymes.

The mark [9] stands for this setting: read-out: E. faecium VRE (ATCC 51559) MIC.
Setting [10] is: CRL-8155 cells (human lymphoblasts), read-out: Mamm. cells (CRL8155) CC50.
[11] abbreviates: HepG2 cells (human hepatocellular carcinoma), read-out: Mamm. cells (HepG2) CC50.
Setting [12] is: recombinant enzyme, lower limit of detection 0.025 μM, read-out: MetRS S. aureus (enzyme) IC50.

≈ marks a conversion by molar mass, not a printed value. Like-named read-outs stand apart in the source and are kept apart here.

Sequence of recombinant S. aureus MetRS enzyme (A0A0H2XID2 2-657): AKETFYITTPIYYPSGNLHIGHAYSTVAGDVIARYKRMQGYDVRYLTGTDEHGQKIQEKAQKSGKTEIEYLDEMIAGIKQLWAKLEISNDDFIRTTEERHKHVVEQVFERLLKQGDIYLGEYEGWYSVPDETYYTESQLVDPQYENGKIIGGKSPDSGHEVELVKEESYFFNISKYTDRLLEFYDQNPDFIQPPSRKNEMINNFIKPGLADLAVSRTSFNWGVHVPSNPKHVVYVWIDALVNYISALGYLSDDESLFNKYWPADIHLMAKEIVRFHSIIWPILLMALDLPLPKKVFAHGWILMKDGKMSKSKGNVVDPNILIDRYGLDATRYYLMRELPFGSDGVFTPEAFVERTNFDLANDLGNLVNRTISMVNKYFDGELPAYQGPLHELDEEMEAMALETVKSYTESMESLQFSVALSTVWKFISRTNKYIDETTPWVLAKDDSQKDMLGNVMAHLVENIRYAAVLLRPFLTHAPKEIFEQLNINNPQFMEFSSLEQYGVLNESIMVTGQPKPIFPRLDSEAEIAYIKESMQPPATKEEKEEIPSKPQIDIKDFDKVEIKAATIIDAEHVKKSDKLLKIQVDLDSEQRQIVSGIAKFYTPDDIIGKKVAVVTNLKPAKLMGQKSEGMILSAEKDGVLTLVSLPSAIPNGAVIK

Consider `CCCn1c(Cc2ccc(Cl)cc2Cl)cn(Cc2nc3nc(F)ccc3[nH]2)c1=O` [Compound 2069, 4-[(2,4-dichlorophenyl)methyl]-1-({5-fluoro-1H-imidazo[4,5-b]pyridin-2-yl}methyl)-3-propyl-2,3-dihydro-1H-imidazol-2-one], for which the minimum inhibitory concentration (MIC) (as a rule, the least concentration at which growth counts as inhibited) in data set [1] (E. faecium ATCC 51559, read-out: (I) E. faecium (ATCC 51559) MIC) is above 2 µg/mL; in the data set on S. aureus (50% human serum, read-out: Avg MIC ± SEM (+50% serum)), 18.3 ± 2.2 µg/mL; in the data set on S. aureus (no serum, read-out: Avg MIC ± SEM (no serum)), 0.036 ± 0.03 µg/mL; in [4], 0.445 µg/mL (≈ 1.02 µM). Besides, the values for the EC50 in the data set with T. cruzi (Trypanosoma cruzi) and in the data set with T. cruzi were 91.3 nM and 176 nM, respectively. For the same compound, the figures for the IC50 (at MetRS (T. brucei); in data set [3] (read-out: (B) MetRS (S. aureus) IC50); at MetRS (C. parvum)) were below 40 nM, below 25 nM and below 40 nM, respectively. The “% binding to mouse plasma” value in data set [2] worked out at 99.6%.

For `Oc1cc(NCCCNCc2cc(Cl)cc(Cl)c2)nc2ccccc12` [Compound 1312, 2-((3-((3,5-dichlorobenzyl)amino)propyl)amino)quinolin-4(1H)-one], the MIC in the data set with E. faecium (ATCC 19434) came to 0.156 µg/mL (≈ 0.415 µM); in data set [5], 5 µg/mL (≈ 13.3 µM); in the data set on E. faecalis (ATCC 29212), 0.313 µg/mL (≈ 0.832 µM); in [1] (setting [9]), 0.156 µg/mL (≈ 0.415 µM); in [7] it was 2.5 µg/mL (≈ 6.64 µM). Further, the CC50 at 48 h in data set [6] (setting [10]) and in data set [6] (setting [11]) was above 7.5 µg/mL each time. In addition, the IC50 – broadly, the point on the concentration scale where inhibition reaches its midpoint – in data set [3] (setting [12]) was below 25 nM.

For the compound `O=c1[nH]c(Cc2ccc(Cl)cc2Cl)cn1Cc1nc2ccc(F)nc2[nH]1` [Compound 1962, 4-(2,4-dichlorobenzyl)-1-((5-fluoro-3H-imidazo[4,5-b]pyridin-2-yl)methyl)-1,3-dihydro-2H-imidazol-2-one, reference compound], the MIC turned out to be 1.25 µg/mL (≈ 3.19 µM) in the data set with E. faecium (ATCC 19434); 5 µg/mL (≈ 12.7 µM) in data set [5]; 5 µg/mL (≈ 12.7 µM) in the data set on E. faecalis (ATCC 29212); 1.25 µg/mL (≈ 3.19 µM) in [1] (setting [9]); 2.5 µg/mL (≈ 6.37 µM) in data set [7]. Besides, the CC50 at 48 h in data set [6] (setting [10]) and in [6] (setting [11]) was above 19.6 µg/mL throughout. The IC50 in [3] (setting [12]) is below 25 nM. Besides, the half-life at 1 μM in data set [8] (human, human liver microsomes, read-out: Microsome stability: Human T½) was determined as 25.9 min; in data set [8] (mouse liver microsomes, CD-1 mouse, read-out: Microsome stability: Mouse T½) it was 27 min.

Values taken from US11584744B2 (UNIVERSITY OF WASHINGTON, priority 2017, dated 2023).
